Reference: article PMC6982053, “GABAA Receptor Ligands Often Interact with Binding Sites in the Transmembrane Domain and in the Extracellular Domain—Can the Promiscuity Code Be Cracked?” (International Journal of Molecular Sciences, 2020)

Biological target: T1, GABAA receptor α1β1 (β1 subunit) (Rattus norvegicus, UniProt P15431+P62813)
T1 construct: gene Gabrb1; rat α1β1 expressed in Xenopus laevis oocytes; with GABAA receptor α1 subunit
Assay: two-electrode voltage clamp, modulation of GABA EC3-5 current (low efficacy)
Assay type: cell-based

T1 sequence (P15431 26-474): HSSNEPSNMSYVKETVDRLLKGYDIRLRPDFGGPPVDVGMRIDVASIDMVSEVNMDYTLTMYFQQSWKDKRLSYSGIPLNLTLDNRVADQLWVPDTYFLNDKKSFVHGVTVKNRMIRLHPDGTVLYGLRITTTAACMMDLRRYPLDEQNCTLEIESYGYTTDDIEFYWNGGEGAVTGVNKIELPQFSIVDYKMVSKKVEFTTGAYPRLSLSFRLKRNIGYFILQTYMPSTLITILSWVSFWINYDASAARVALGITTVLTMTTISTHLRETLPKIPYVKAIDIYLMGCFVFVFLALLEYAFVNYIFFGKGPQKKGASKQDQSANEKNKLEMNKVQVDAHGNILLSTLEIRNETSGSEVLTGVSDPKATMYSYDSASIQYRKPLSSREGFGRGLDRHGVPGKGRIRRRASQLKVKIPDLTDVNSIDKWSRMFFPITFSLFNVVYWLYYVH
T1 sequence (P62813 28-455): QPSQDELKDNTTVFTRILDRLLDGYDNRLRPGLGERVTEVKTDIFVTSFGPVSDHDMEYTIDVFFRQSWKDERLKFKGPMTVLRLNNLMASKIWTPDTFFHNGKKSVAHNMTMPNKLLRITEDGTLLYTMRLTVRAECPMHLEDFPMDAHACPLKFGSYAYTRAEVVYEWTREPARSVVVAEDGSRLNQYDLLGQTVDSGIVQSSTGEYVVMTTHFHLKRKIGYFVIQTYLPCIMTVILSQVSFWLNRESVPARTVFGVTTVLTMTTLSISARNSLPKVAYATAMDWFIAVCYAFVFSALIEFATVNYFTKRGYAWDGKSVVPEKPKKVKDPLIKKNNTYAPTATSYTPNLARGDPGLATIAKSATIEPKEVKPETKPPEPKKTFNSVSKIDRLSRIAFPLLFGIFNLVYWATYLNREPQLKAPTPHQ

EC50: 7.65 µM
Compound: O=C(O)c1[nH]c2ccc(Cl)cc2c1/N=N/c1ccc(Br)cc1 [MTI163, (E)-3-((4-bromophenyl)diazenyl)-5-chloro-1H-indole-2-carboxylic Acid]
